Columns and labels:
[1] = tested on: A549 (lung carcinoma); conditions: read-out: IC50 A549; cited from earlier work
[2] = tested on: pBR322 plasmid DNA; type: binding
[3] = tested on: HeLa (cervix carcinoma); conditions: read-out: IC50 HeLa; cited from earlier work
[4] = tested on: A549 cells; type: cell-based, human
[5] = tested on: lung mouse embryonic fibroblasts (LMEFs); type: cell-based; conditions: 10 μM, 22 h
[6] = tested on: A549 (lung carcinoma)
[7] = tested on: tubulin; type: cell-based, human

**Q.** With N.N.[Cl][Pt][Cl] [cisplatin, reference compound] as the compound, how does the IC50 [1] read?
**A.** 6.45 ± 0.47 µM

**Q.** What about the “electrophoretic mobility of plasmid forms” value [2] of the same compound?
**A.** electrophoretic shift

**Q.** What about the IC50 [3] of the same compound?
**A.** 13.6 ± 0.99 µM

**Q.** Which “cellular internalization (intracellular green fluorescence)” value [4] does the source give for CN(C)c1ccc(-c2nc3ccccc3s2)cc1 [Me2N‐pbtH, 2‐(4‐dimethylaminophenyl)benzothiazole] here?
**A.** successful internalization

**Q.** What about the “colocalization with Golgi apparatus marker BODIPY TR C5 ceramide” value [4] of the same compound?
**A.** most of the signal colocalized with the Golgi apparatus marker

**Q.** What about the “time to bright green fluorescence (internalization)” value [4] of the same compound?
**A.** 2 to 5 min

**Q.** And the “accumulation in endosomal/lysosomal compartments (LysoTracker)” value [5]?
**A.** minor accumulation in the endosomal/lysosomal compartments

**Q.** And the “accumulation in mitochondria (MitoTracker)” value [5]?
**A.** lack of accumulation in mitochondria

**Q.** And the “cytotoxic effects against A549 cells” value [6]?
**A.** did not show cytotoxic effects

**Q.** For COC(=O)Nc1nc2ccc(C(=O)c3cccs3)cc2[nH]1 [nocodazole, reference compound], which “tubulin depolymerization / microtubule disassembly” value [7] is on record?
**A.** notable microtubule disassembly
